Laboratory results from patent US20030232862A1 (priority 2002, published 2003).
“Also recorded” adds a separate entry of the source. Counter-ions that a name gives are not always drawn.

Legend:
Cyclooxygenase (COX) = molecular target: T1, Cyclooxygenase (COX) (Ovis aries, UniProt P05979); assay: COX inhibition assay, single dose screen (Table 2); type: biochemical
T1 sequence (P05979 25-600): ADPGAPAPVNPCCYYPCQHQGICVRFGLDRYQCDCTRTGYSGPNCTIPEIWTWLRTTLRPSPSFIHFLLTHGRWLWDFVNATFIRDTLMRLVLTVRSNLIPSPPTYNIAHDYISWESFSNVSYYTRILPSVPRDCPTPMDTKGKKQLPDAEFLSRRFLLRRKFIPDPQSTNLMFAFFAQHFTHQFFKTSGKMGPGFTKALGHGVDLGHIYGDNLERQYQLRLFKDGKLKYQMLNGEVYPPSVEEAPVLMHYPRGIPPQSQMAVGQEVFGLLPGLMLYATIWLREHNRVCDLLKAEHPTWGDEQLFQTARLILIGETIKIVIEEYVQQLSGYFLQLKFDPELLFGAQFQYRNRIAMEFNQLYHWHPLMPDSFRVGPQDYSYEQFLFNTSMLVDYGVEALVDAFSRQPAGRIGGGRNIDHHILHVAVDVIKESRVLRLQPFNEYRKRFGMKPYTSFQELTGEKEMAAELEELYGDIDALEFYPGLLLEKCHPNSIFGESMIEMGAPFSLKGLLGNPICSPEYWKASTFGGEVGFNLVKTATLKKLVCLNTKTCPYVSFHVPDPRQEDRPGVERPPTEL

[1] = molecular target: cGMP PDE purified from human colon HT-29 cultured tumor cells (Homo sapiens, UniProt O76074); assay: cGMP PDE inhibition assay; type: biochemical; conditions: for PDE Inhibition: Table 9 qualitative profile; for IC50: read-out: IC50 for inhibition of cGMP PDE
[2] = test system: HT-29 colon adenocarcinoma cells; assay: Apoptosis by DNA fragmentation assay in HT-29 cells; type: cell-based, human; conditions: for Apoptosis: Table 9 qualitative profile; as to Apoptosis: key: −: Not active; +: Slightly active; + +: Moderately active; + + +: Strongly active; + + + +: Highly active
HT-29 cells = assay: Growth inhibition of HT-29 cells (SRB assay; trypan blue counting in time course); type: cell-based, human; conditions: for Growth Inhibition: Table 9 qualitative profile
[3] = test system: premalignant lesions in mouse mammary gland organ culture; assay: Mammary gland organ culture model; type: cell-based; conditions: Table 9 qualitative profile; also: key: −: Not active; +: Slightly active; + +: Moderately active; + + +: Strongly active; + + + +: Highly active
Text: Test compounds identified by the above methods can be tested for antineoplastic activity by their ability to inhibit the incidence of pre-neoplastic lesions in a mammary gland organ culture system. This mouse mammary gland organ culture technique has been successfully used by other investigators to study the effects of known antineoplastic agents such as certain NSAIDs, retinoids, tamoxifen, selenium, and certain natural products, and is useful for validation of the screening method of the present invention.
For example, female BALB/c mice can be treated with a combination of estradiol and progesterone daily, in order to prime the glands to be responsive to hormones in vitro. The animals are sacrificed, and thoracic mammary glands are excised aseptically and incubated for ten days in growth media supplemented with insulin, prolactin, hydrocortisone, and aldosterone. DMBA (7,12-dimethylbenz(a)anthracene) is added to medium to induce the formation of premalignant lesions. Fully developed glands are then deprived of prolactin, hydrocortisone, and aldosterone, resulting in the regression of the glands but not the pre-malignant lesions.
The test compound is dissolved in DMSO and added to the culture media for the duration of the culture period. At the end of the culture period, the glands are fixed in 10% formalin, stained with alum carmine, and mounted on glass slides. The incidence of forming mammary lesions is the ratio of the glands with mammary lesions to […]. The incidence of mammary lesions in test compound treated glands is compared with that of the untreated glands.
The extent of the area occupied by the mammary lesions can be quantitated by projecting an image of the gland onto a digitation pad. The area covered by the gland is traced on the pad and considered as 100% of the area. The space covered by each of the non-regressed structures is also outlined on the digitization pad and quantitated by the computer.
Mammary gland organ culture experiment were performed as previously described (Mehta and Moon, Cancer Research, 46: 5832-5835, 1986).

[4] = test system: SW-480 colon adenocarcinoma cells
human breast xenograft = conditions: in vivo; cited from earlier work
[5] = molecular target: T2, PDE Peak A (PDE5) from SW480 cells (Homo sapiens, UniProt O76074); assay: cGMP hydrolysis by PDE Peak A (PDE5) isolated from SW480 cells; type: biochemical
T2 construct: To isolate the novel phosphodiesterase from SW480, approximately four hundred million SW480 cells were grown to confluence; endogenous in cells; host or cells: SW480 colon cancer cells; 105,000 g supernatant, DEAE-Trisacryl M fraction

[6] = molecular target: T3, novel cGMP-specific PDE Peak B from SW480 cells (Homo sapiens, UniProt O00408); assay: cGMP hydrolysis by novel PDE Peak B isolated from SW480 cells; type: biochemical
T3 construct: IC50 Peak B (μM)
T3 sequence (O00408 whole entry): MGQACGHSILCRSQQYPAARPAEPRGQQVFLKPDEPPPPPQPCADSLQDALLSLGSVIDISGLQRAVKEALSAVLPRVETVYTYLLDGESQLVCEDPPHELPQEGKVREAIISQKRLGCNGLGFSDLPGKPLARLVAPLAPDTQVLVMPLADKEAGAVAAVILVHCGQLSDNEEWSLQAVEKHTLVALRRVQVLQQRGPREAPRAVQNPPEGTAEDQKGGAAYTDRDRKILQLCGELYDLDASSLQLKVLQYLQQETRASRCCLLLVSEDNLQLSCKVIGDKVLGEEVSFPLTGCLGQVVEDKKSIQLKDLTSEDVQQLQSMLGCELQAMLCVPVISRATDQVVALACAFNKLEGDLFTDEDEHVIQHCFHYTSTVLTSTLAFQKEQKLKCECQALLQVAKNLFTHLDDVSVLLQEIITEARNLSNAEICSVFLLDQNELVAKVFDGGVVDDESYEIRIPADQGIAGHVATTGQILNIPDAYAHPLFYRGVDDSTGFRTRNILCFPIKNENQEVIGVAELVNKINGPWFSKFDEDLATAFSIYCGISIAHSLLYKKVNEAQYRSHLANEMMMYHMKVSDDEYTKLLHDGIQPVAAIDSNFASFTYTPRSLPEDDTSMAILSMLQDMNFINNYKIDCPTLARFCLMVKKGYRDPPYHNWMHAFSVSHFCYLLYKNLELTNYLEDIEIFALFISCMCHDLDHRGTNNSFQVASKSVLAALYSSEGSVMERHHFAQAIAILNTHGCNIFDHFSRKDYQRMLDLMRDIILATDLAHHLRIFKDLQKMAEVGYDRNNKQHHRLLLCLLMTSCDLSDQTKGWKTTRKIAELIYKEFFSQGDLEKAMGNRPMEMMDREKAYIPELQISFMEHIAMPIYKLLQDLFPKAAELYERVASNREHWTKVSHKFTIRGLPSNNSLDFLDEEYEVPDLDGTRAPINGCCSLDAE

[7] = molecular target: T4, purified cyclooxygenase (Type 1) from ram seminal vesicles (Ovis aries, UniProt P05979); assay: Purified cyclooxygenase (Type 1) activity; type: biochemical; conditions: FIG. 5
T4 construct: using purified cyclooxygenase from ram seminal vesicles as described previously; from tissue; host or cells: ram seminal vesicles
T4 sequence (P05979 25-600): T1 sequence (P05979 25-600)

[8] = Seven-day dose-range finding study in rats; type: in vivo; conditions: any dose level
28-day study in rats = type: in vivo
[9] = test system: LNCaP prostate tumor cell line; assay: Histone-associated DNA fragmentation in LNCaP cells; type: cell-based; conditions: 50 μM, up to 4 days
Method: (§1) The androgen-sensitive prostate tumor cell line, LNCaP (from ATCC (Rockville, Md.)) was propagated under standard conditions using […] medium containing 5% fetal calve serum and 2 mM glutamine. Primary prostate epithelial cell cultures (PrEC) derived from normal prostate (from Clonetics Inc. (San Diego, Calif.)) were grown under the same conditions as the tumor cell line except a serum-free medium optimized for the growth of such cultures was used (Clonetics Inc). For the experiments, LNCaP or PrEC cells were seeded in 96 well plates at a density of 10,000 cells per well. After 24 hours, the cells were treated with either vehicle (0.1% DMSO) or 50 μM Compound I (free base) solubilized in DMSO. After various drug treatment times (4, 24, 48, 72, or 99 hours) the cells were lysed and processed for measurement of histone-associated DNA as an indicator of apoptotic cell death (see, Piazza et al., Cancer Research 57: 2452-2459, 1997).

[10] = test system: PrEC primary prostate epithelial cells derived from normal prostate; assay: Histone-associated DNA fragmentation in PrEC cells; type: cell-based; conditions: 50 μM, up to 4 days
Method: as §1

[11] = Single, escalating dose human study; type: in vivo
[12] = dog, in vivo
[13] = test system: PDE4 purified from human colon HT-29 cultured tumor cells; assay: PDE4 inhibition assay; type: biochemical
Method: (Thompson, W. J., Teraski, W. L., Epstein, P. M., Strada, S. J., Advances in Cyclic Nucleotide Research, 10:69-92, 1979, which is incorporated herein by reference). […] The mixture is incubated at 30° C. for 10 minutes with isolated PDE of this invention. Reactions are terminated, for example, by boiling the reaction mixture for 75 seconds. After cooling on ice, 100 μl of 0.5 mg/mL snake venom (O. Hannah venom available from Sigma) is added and incubated for 10 minutes at 30° C. This reaction is then terminated by the addition of an alcohol, e.g. 1 mL of 100% methanol. Assay samples are applied to 1 mL Dowex 1-X8 column; and washed with 1 mL of 100% methanol. The amount of radioactivity in the breakthrough and the wash from the column is combined and measured with a scintillation counter. The degree of phosphodiesterase inhibition is determined by calculating the amount of radioactivity in drug-treated reactions and comparing against a control sample (a reaction mixture lacking the tested compound but with drug solvent).

[14] = molecular target: T5, cGMP binding sites of GST-cGB-PDE5 fusion protein (Homo sapiens, UniProt O76074); assay: cGMP binding assay with GST-cGB-PDE5 fusion protein; conditions: 3H-cGMP 2 μM
T5 construct: made in house; host or cells: E. coli BL21 (DE3)

[15] = test system: SW-480 colon adenocarcinoma cells; assay: Apoptosis fold induction protocol (DNA fragmentation, Table 4); conditions: Homo sapiens, SW480, read-out: Fold induction at 100 μM (apoptosis), 100 μM; cell line not given

In the case of `CCN(CC)CCSC12CC(=O)OC1(C)/C(=C/c1ccc(S(C)(=O)=O)cc1)c1ccc(F)cc12` (racemic) [A, rac-threo-(E)-1-(N,N′-diethylaminoethanethio)-1-(butan-1′,4′-olido)-[3′,4′:1,2]-6-fluoro-2-methyl-3-(p-methylsulfonylbenzylidene)-indan], the “% Inhibition at 100 μM (cyclooxygenase)” value (Cyclooxygenase (COX); 100 μM) is reported as less than 25%, the “% Inhibition at 10 μM (cGMP PDE)” value [1] is reported as less than 25% and the “PDE Inhibition” value [1] is reported as “−”. The Apoptosis [2] was “+ +”, the “% Inhibition at 100 μM (growth)” value (HT-29 cells; 100 μM) was 68% and the “Growth Inhibition” value (HT-29 cells) was “+ + +”. For the same molecule, the “Mammary Gland Organ Culture” value [3] was “+ +” and the “Fold induction at 100 μM (apoptosis)” value [4] was less than 2.0 fold.

In the case of `COc1cc2ncnc(Nc3ccc(F)c(Cl)c3)c2cc1OCCCN1CCOCC1` [Iressa, 4-quinazolinamine, N-(3-chloro-4-fluorophenyl)-7-methoxy-6-[3-(4-morpholinyl)propoxy]-(9CI)], the “human breast xenograft growth” value (human breast xenograft) is listed as “inhibits human breast xenograft growth”.

With `COc1cc(/C=C2/C(C)=C(CC(=O)NCc3ccccc3)c3cc(F)ccc32)cc(OC)c1OC` [Compound E, (Z)-5-Fluoro-2-methyl-1-(3,4,5-trimethoxybenzylidene)-3-indenylacetamide, N-benzyl] the “competitive (with cGMP) inhibition/binding, Peak A” value [5] was “competitively (with cGMP) bind; also recorded: competitively inhibited”, the “competitive (with cGMP) inhibition/binding, Peak B” value [6] was “competitively (with cGMP) binds; also recorded: competitively inhibited” and the “COX-I inhibition” value [7] was “neither test compound B and E significantly inhibits COX-I”. For the same molecule, the “% Inhibition at 10 μM (cGMP PDE)” value [1] was 75%, the “PDE Inhibition” value [1] was “+ + + +” and the IC50 [1] was 0.08 µM. The Apoptosis [2] was “+ + + +”, the “Growth Inhibition” value (HT-29 cells) was “+ + + +” and the “Mammary Gland Organ Culture” value [3] was “+ + + +”.

In the case of `CC1=C(CC(=O)NCc2ccccc2)c2cc(F)ccc2/C1=C\c1ccncc1` [Compound I, (Z)-5-fluoro-2-methyl-(4-pyridylidene)-3-(N-benzyl)indenylacetamide hydrochloride], the “hematology, blood chemistry, microscopic pathology, seven-day study” value [8] is reported as “No hematological or blood chemistry changes nor any microscopic pathology changes”, the “liver weights, 28-day study” value (28-day study in rats; 2000 mg/kg/day) is reported as “statistically significant increase in liver weights” and the “thyroid weights, 28-day study” value (28-day study in rats; 2000 mg/kg/day) is reported as “statistically significant increases in thyroid weights”. The “histopathological evaluation, 28-day study” value (28-day study in rats; generally limited to a small number of animals at 2000 mg/kg/day) was “traces of follicular cell hypertrophy, increased numbers of mitotic figures (suggestive of possible cell proliferation) in the thyroid gland and mild centrilobular hypertrophy in the liver”, the “histone-associated fragmented DNA in LNCaP cell cultures” value [9] was “time-dependent increase” and the “DNA fragmentation in PrEC cells” value [10] was “did not affect DNA fragmentation”. For the same molecule, the “safety in human study” value [11] was “safe”, the “drug-related effects, single and seven consecutive doses in dogs” value [12] was “At no time in either dosing phase were any obvious signs of drug-related effects observed” and the “signs of toxicity, single dose in dogs” value ([12]; 1000 mg/kg) was “no signs of toxicity”.

With `COc1cc(/C=C2/C(C)=C(CC(=O)O)c3cc(F)ccc32)cc(OC)c1OC` [Compound B, (Z)-5-Fluoro-2-methyl-1-(3,4,5-trimethoxybenzylidene)-3-acetic acid] the “COX-I inhibition” value [7] was “neither test compound B and E significantly inhibits COX-I”, the inhibition at 100 µM (Cyclooxygenase (COX)) was less than 25% and the “COX Inhibition” value (Cyclooxygenase (COX); Table 9 qualitative profile) was “−”. For the same molecule, the “PDE Inhibition” value [1] was “+ + +”, the inhibition at 10 µM ([1]; read-out: % Inhibition at 10 μM (cGMP PDE), 10 μM) was less than 25% and the IC50 [1] was 18 µM. It also gave an inhibition at 20 µM ([1]; read-out: inhibition of cGMP PDE at 20 μM, 20 μM) greater than 50%, an IC50 [13] of 58 µM and an EC50 ([2]; Homo sapiens, HT-29, 48 hours) of roughly 175 µM. The Apoptosis [2] was “+ + +”, the “Growth Inhibition” value (HT-29 cells) was “+ + +” and the “Mammary Gland Organ Culture” value [3] was “+ +”. For the same molecule, the “competition with cGMP in binding of GST-cGB-PDE5” value [14] was “do not bind to the cGMP binding sites of PDE5” and the fold induction at 100 µM [15] was greater than 2.
